Experimental data: paper PMC10586451, “Design, Synthesis, Pharmacological Activities, Structure–Activity Relationship, and In Silico Studies of Novel 5-Substituted-2-(morpholinoimino)-thiazolidin-4-ones” (ACS Omega, 2023)
Values joined by “and” are separate entries in the source; they are usually repeats but may differ in a detail not shown here. Equal values may be shown once. Read-outs that look alike come from different tables or passages of the source.

Assays:
[1] = β-carotene-linoleic acid assay (antioxidant); settings: mean ± SEM of three parallel measurements
Description: (§1) DMSO solutions of four different concentrations (12.5, 25, 50, and 100 μM) of the synthesized compound 1–26 were prepared. DMSO was used as a control, while BHA and α-TOC were used as antioxidant standards.

[2] = ABTS cation radical scavenging assay; settings: mean ± SEM of three parallel measurements
Description: as §1

[3] = DPPH radical scavenging assay; settings: mean ± SEM of three parallel measurements
Description: as §1

[4] = CUPRAC assay (Cu(II) reducing power); settings: concentration at 0.500 absorbance; mean ± SEM
Description: as §1

[5] = target: tyrosinase; type: biochemical; settings: mean ± SEM of three parallel measurements
[6] = target: T1, Acetylcholinesterase (AChE) (Electrophorus electricus, UniProt O42275); experiment: biochemical; settings: for IC50: mean ± SEM of three parallel measurements
T1 construct: Acetylcholinesterase (AChE) from electric eel; from tissue; host or cells: electric eel
Description: (§2) Anticholinesterase activity of all was performed according to the Ellman’s method using a 96-well microplate reader. Acetylcholinesterase (AChE) from electric eel and butyrylcholinesterase (BChE) from horse serum were used. Acetylthiocholine iodide and butyrylthiocholine chloride were utilized as substrates. DTNB (5,50-dithiobis(2-nitrobenzoic) acid was used as a coloring agent to measure the anticholinesterase activity.[43] Measurements were obtained in triplicate.

[7] = target: T2, butyrylcholinesterase (BChE) (Equus caballus, UniProt P81908); experiment: biochemical; settings: for IC50: mean ± SEM of three parallel measurements
T2 construct: butyrylcholinesterase (BChE) from horse serum; from tissue; host or cells: horse serum
Description: as §2

[8] = target: urease (Canavalia ensiformis, UniProt P07374); experiment: biochemical
[9] = Selectivity index: IC50 for BChE/IC50 for AChE
[10] = Selectivity index: IC50 for AChE/IC50 for BChE
[11] = urease activity IC50, mean ± SEM of three parallel measurements

T2 sequence (P81908 whole entry): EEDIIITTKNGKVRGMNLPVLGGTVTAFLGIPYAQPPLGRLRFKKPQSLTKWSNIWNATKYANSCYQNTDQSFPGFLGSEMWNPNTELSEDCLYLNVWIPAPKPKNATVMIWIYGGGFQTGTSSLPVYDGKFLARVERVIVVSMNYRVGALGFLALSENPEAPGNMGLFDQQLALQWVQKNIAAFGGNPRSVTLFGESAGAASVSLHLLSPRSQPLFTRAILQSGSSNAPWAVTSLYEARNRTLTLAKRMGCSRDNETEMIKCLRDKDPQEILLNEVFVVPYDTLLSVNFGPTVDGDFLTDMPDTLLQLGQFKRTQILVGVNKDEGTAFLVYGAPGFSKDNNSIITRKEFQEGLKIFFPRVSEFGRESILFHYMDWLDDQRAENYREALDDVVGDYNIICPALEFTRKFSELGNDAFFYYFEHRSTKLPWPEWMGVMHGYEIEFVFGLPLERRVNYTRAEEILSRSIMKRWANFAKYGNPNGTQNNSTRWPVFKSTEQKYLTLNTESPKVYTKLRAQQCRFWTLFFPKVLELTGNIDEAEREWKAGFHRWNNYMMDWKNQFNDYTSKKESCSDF
T1 sequence (O42275 24-633): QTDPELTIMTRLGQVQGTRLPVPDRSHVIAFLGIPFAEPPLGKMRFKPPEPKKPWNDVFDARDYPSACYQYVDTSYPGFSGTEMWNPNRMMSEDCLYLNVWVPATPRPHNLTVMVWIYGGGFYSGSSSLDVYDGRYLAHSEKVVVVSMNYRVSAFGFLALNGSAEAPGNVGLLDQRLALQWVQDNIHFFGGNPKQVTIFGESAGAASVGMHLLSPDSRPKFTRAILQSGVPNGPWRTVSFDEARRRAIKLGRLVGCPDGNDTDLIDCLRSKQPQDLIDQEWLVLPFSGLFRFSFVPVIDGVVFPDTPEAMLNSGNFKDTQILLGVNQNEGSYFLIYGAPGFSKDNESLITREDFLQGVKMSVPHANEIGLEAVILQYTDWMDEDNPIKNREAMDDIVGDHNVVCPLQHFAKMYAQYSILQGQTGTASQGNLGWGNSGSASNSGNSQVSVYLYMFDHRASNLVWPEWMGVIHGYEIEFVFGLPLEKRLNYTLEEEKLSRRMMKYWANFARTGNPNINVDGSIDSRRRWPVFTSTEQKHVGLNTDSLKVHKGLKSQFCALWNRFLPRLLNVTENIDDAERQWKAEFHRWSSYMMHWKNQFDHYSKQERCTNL
urease, sequence (P07374 whole entry, looked up): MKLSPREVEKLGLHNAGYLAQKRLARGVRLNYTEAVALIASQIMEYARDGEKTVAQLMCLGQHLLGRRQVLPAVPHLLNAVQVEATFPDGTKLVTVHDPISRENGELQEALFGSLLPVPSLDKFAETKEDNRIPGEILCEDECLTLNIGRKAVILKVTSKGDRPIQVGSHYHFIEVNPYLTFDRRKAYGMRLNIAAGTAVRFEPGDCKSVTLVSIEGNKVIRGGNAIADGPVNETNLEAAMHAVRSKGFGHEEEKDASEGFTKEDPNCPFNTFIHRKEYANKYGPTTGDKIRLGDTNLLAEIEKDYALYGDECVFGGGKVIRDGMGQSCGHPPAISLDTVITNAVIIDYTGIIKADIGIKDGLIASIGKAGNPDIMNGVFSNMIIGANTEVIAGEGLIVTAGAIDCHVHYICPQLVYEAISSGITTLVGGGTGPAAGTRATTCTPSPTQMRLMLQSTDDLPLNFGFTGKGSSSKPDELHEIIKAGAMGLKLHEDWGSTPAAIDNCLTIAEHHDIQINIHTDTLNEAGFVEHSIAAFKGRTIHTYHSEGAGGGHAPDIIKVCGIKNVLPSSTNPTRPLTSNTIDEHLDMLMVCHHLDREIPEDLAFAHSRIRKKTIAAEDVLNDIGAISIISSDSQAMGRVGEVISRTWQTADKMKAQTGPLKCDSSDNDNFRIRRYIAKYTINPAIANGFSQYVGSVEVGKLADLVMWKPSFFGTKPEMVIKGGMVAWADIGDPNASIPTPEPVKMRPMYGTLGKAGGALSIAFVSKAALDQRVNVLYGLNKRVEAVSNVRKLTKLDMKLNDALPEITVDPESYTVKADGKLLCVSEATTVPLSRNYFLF

| SMILES | IC50 [1] | IC50 [2] | IC50 [3] | CUPRAC assay A0.5 [4] | IC50 [5] | SI for AChE [6, 9] | IC50 [6] | SI for BChE [7, 10] | IC50 [7] | IC50 [8, 11] | SI for AChE [6] | SI for BChE [7] | IC50 ([8]; mean ± SEM of three parallel measurements, read-out: urease activity IC50) |
| --- | --- | --- | --- | --- | --- | --- | --- | --- | --- | --- | --- | --- | --- |
| Cc1cc(C(C)(C)C)c(O)c(C(C)(C)C)c1 [BHT, butylated hydroxytoluene, reference compound] | 2.34 ± 0.09 µM | 2.91 ± 0.55 µM | 55 ± 0.99 µM | 3.80 ± 0.02 µM | – | – | – | – | – | – | – | – | – |
| S=C(Nc1ccccc1)NN1CCOCC1 [Compound 1, 1-Morpholino-3-phenylthiyourea] | 79.37 ± 0.38 µM | 48.9 ± 0.78 µM | 253.4 ± 0.6 µM | 45.18 ± 0.01 µM | 35130 ± 70 µM | 0.91 | 130 ± 0.18 µM | 1.10 | 118.5 ± 0.34 µM | 82.54 ± 0.29 µM | – | – | – |
| O=C1CSC(=NN2CCOCC2)N1c1ccccc1 [Compound 2, 2-(Morpholinoimino)-3-phenylthiazolidin-4-one] | 40.43 ± 0.11 µM | 31.66 ± 0.13 µM | 101.9 ± 0.61 µM | 36.35 ± 0.00 µM | 30200 ± 610 µM | 1.50 | 44.3 ± 0.75 µM | 0.67 | 66.44 ± 0.41 µM | 65.4 ± 0.67 µM | – | – | – |
| O=C1C(=Cc2ccccc2)SC(=NN2CCOCC2)N1c1ccccc1 [Compound 3, 5-(Benzylidene)-2-(morpholinoimino)-3-phenylthiazolidine-4-one] | 39.8 ± 0.67 µM | 31.59 ± 0.04 µM | 52.13 ± 0.29 µM | 35.89 ± 0.01 µM | 29400 ± 490 µM | 1.42 | 34.2 ± 0.63 µM | 0.70 | 48.72 ± 0.18 µM | 56.8 ± 0.15 µM | – | – | – |
| O=C1C(=Cc2ccc(Br)cc2)SC(=NN2CCOCC2)N1c1ccccc1 [Compound 4, 5-(4-Bromobenzylidene)-2-(morpholinoimino)-3-phenylthiazolidine-4-one] | 34.7 ± 0.15 µM | 23.7 ± 0.66 µM | 40.2 ± 0.77 µM | 21.18 ± 0.00 µM | 28400 ± 900 µM | 1.43 | 27.7 ± 0.51 µM | 0.70 | 39.6 ± 0.74 µM | 56.11 ± 0.22 µM | – | – | – |
| O=C1C(=Cc2ccc(O)cc2)SC(=NN2CCOCC2)N1c1ccccc1 [Compound 5, 5-(4-Hydroxybenzaldehyde)-2-(morpholinoimino)-3 phenylthiazolidine-4-one] | 36.2 ± 0.46 µM | 28.74 ± 0.19 µM | 42.8 ± 0.53 µM | 24.48 ± 0.02 µM | 28000 ± 350 µM | 1.38 | 27 ± 0.48 µM | 0.73 | 37.1 ± 0.57 µM | 55.6 ± 0.81 µM | – | – | – |
| COc1ccc(C=C2SC(=NN3CCOCC3)N(c3ccccc3)C2=O)cc1 [Compound 6, 5-(4-(Methoxy)benzylidene)-2-(morpholinoimino)-3-phenylthiazolidin-4-one] | 37.07 ± 0.22 µM | 30.6 ± 0.05 µM | 43.46 ± 0.14 µM | 32.68 ± 0.01 µM | 27990 ± 170 µM | 1.27 | 29 ± 0.64 µM | 0.79 | 36.81 ± 0.19 µM | 50.78 ± 0.08 µM | – | – | – |
| COc1ccc(C=C2SC(=NN3CCOCC3)N(c3ccccc3)C2=O)cc1OC [Compound 7, 5-(3,4-Dimethoxy-benzylidene)-2-(morpholinoimino)-3-phenylthiazolidin-4-one] | 38.24 ± 0.13 µM | 31.55 ± 0.22 µM | 43.91 ± 0.29 µM | 34.50 ± 0.01 µM | 27720 ± 240 µM | 1.34 | 30.4 ± 0.47 µM | 0.75 | 40.88 ± 0.16 µM | 54.3 ± 0.62 µM | – | – | – |
| COc1cc(C=C2SC(=NN3CCOCC3)N(c3ccccc3)C2=O)cc(OC)c1OC [Compound 8, 5-(3,4,5-(Trimethoxy)benzylidene)-2-(morpholinoimino)-3-phenylthiazolidin-4-one] | 36.5 ± 0.39 µM | 32.95 ± 0.28 µM | 44.06 ± 0.21 µM | 35.13 ± 0.03 µM | 25700 ± 390 µM | 1.41 | 33.61 ± 0.33 µM | 0.71 | 47.3 ± 0.77 µM | 53.4 ± 0.64 µM | – | – | – |
| O=C1C(=Cc2ccc([N+](=O)[O-])cc2)SC(=NN2CCOCC2)N1c1ccccc1 [Compound 9, 5-(4-Nitrobenzylidene)-2-(morpholinoimino)-3-phenylthiazolidin-4-one] | 30.44 ± 0.17 µM | 25.2 ± 0.37 µM | 32.3 ± 0.55 µM | 21.87 ± 0.01 µM | 25420 ± 120 µM | 1.35 | 29.8 ± 0.81 µM | 0.74 | 40.19 ± 0.19 µM | 51.7 ± 0.12 µM | – | – | – |
| CN(C)c1ccc(C=C2SC(=NN3CCOCC3)N(c3ccccc3)C2=O)cc1 [Compound 10] | 34.23 ± 0.2 µM | 30.1 ± 0.69 µM | 37.43 ± 0.29 µM | 28.65 ± 0.00 µM | 25000 ± 670 µM | 1.42 | 26.48 ± 0.25 µM | 0.71 | 37.53 ± 0.2 µM | 49.3 ± 0.55 µM | – | – | – |
| O=C1C(=Cc2ccc(N(CCCl)CCCl)cc2)SC(=NN2CCOCC2)N1c1ccccc1 [Compound 11] | 11.9 ± 1.3 µM | 23.2 ± 0.34 µM | 24.6 ± 0.8 µM | 11.82 ± 0.00 µM | 23400 ± 500 µM | – | 21.45 ± 0.06 µM | – | 32.8 ± 0.48 µM | 31.5 ± 0.49 µM | 1.53 | 0.66 | – |
| O=C1C(=Cc2ccc(N3CCCC3)cc2)SC(=NN2CCOCC2)N1c1ccccc1 [Compound 12, 2-(Morpholinoimino)-3-phenyl-5-(4-(pyrrolidin-1-yl)benzylidene)thiazolidine-4-one] | 16.2 ± 0.66 µM | 24.7 ± 0.25 µM | 26.1 ± 0.44 µM | 20.77 ± 0.03 µM | 24800 ± 770 µM | 1.40 | 17.4 ± 0.22 µM | 0.71 | 24.4 ± 0.51 µM | 24.2 µM and 23.6 µM | – | – | – |
| O=C1C(=Cc2ccc(N3CCCCC3)cc2)SC(=NN2CCOCC2)N1c1ccccc1 [Compound 13, 2-(Morpholinoimino)-3-phenyl-5-(4-(piperidin-1-yl)benzylidene)thiazolidine-4-one] | 20.2 ± 0.14 µM | 27.16 ± 0.06 µM | 29 ± 0.29 µM | 23.66 ± 0.02 µM | 26200 ± 1110 µM | 1.61 | 20 ± 0.37 µM | 0.62 | 32.21 ± 0.11 µM | 30.3 ± 0.95 µM | – | – | – |
| O=C1C(=Cc2ccc(N3CCOCC3)cc2)SC(=NN2CCOCC2)N1c1ccccc1 [Compound 14, 2-(Morfolinoimino)-3-phenyl-5-(4-(morpholin-1-yl)benzylidene)thiazolidine-4-one] | 26.31 ± 0.03 µM | 30.3 ± 0.36 µM | 33.86 ± 0.11 µM | 27.43 ± 0.00 µM | 8100 ± 220 µM | 1.34 | 19.2 ± 0.61 µM | 0.75 | 25.7 ± 1.05 µM | 26.7 ± 0.52 µM | – | – | – |
| O=C1C(=Cc2ccco2)SC(=NN2CCOCC2)N1c1ccccc1 [Compound 15, 5-(Furan-2-ylmethylene)-2-(morpholinoimino)-3-phenylthiazolidin-4-one] | 29.7 ± 0.34 µM | 32.2 ± 0.87 µM | 35.05 ± 0.29 µM | 31.24 ± 0.00 µM | 5190 ± 30 µM | 1.37 | 27.4 ± 0.76 µM | 0.73 | 37.6 ± 0.61 µM | 46.4 ± 1.08 µM | – | – | – |
| O=C1C(=Cc2ccsc2)SC(=NN2CCOCC2)N1c1ccccc1 [Compound 16, 2-(Morpholinoimino)-3-phenyl-5-(thiophen-3-ylmethylene) thiazolidine-4-one] | 31.4 ± 1.01 µM | 35.7 ± 1.61 µM | 36.21 ± 0.17 µM | 16.94 ± 0.01 µM | 24080 ± 150 µM | 1.46 | 29 ± 1.03 µM | 0.69 | 42.5 ± 0.18 µM | 42 ± 0.81 µM | – | – | – |
| Cc1ccsc1C=C1SC(=NN2CCOCC2)N(c2ccccc2)C1=O [Compound 17, 5-((3-Methylthiophene-2-yl)methylene)-2-(morpholinoimino)-3-phenylthiazolidin-4-one] | 36 ± 0.58 µM | 33.2 ± 0.65 µM | 36 ± 1 µM | 27.65 ± 0.01 µM | 3220 ± 700 µM | 1.43 | 34.8 ± 0.53 µM | 0.70 | 49.8 ± 1.01 µM | 40.22 ± 0.12 µM | – | – | – |
| O=C1C(=Cc2ccc[nH]2)SC(=NN2CCOCC2)N1c1ccccc1 [Compound 18, 5-((1H-Pyrrol-2-yl)methylene)-2-(morpholinoimino)-3-phenylthiazolidin-4-one] | 33.62 ± 0.04 µM | 31.04 ± 0.17 µM | 35.07 ± 0.03 µM | 26.60 ± 0.02 µM | 16000 ± 410 µM | 1.54 | 21.4 ± 0.92 µM | 0.65 | 32.9 ± 0.75 µM | 20.2 ± 0.77 µM | – | – | – |
| NC(N)=S [thiourea, reference compound] | – | – | – | – | – | – | – | – | – | – | – | – | 24.2 ± 0.3 µM |
| Cc1c(C)c2c(c(C)c1O)CC[C@@](C)(CCC[C@H](C)CCC[C@H](C)CCCC(C)C)O2 [α-TOC, reference compound] | 4.5 ± 0.09 µM | 4.87 ± 0.45 µM | 12.26 ± 0.07 µM | 40.48 ± 0.02 µM | – | – | – | – | – | – | – | – | – |
